From ChEMBL document CHEMBL4811216, “Chemotherapy for human schistosomiasis: how far have we come? What's new? Where do we go from here?” (RSC Med Chem, 2020)
Each block holds one compound with its values, some of them ahead of it.

Experiments:
Schistosoma mansoni [1] = test: Antischistosomal activity against Schistosoma mansoni infected in mouse assessed as worm burden reduction at 200 mg/kg, po administered as single dose and measured after 17 to 21 days relative to control; format: functional; design: scale not given: the % may be the effect or the level left; details: time 17-21 day
Schistosoma mansoni [2] = test: Antischistosomal activity against Schistosoma mansoni NTS incubated for 72 hrs by microscopic method; format: functional, organism-based
Schistosoma mansoni [3] = test: Antischistosomal activity against adult Schistosoma mansoni incubated for 72 hrs by microscopic method; format: functional, organism-based
Schistosoma mansoni [4] = test: Antischistosomal activity against adult Schistosoma mansoni LE assessed as worm mortality at 100 ug/ml incubated for 72 hrs by inverted microscopic method relative to control; format: functional
Schistosoma mansoni [5] = test: Antischistosomal activity against adult Schistosoma mansoni LE assessed as reduction in worm vitality measured every 24 hrs by inverted microscopy; format: functional, organism-based
Schistosoma mansoni [6] = test: Antischistosomal activity against Schistosoma mansoni LE schistosomula assessed as reduction in worm vitality measured every 24 hrs by inverted microscopy; format: functional, organism-based
Schistosoma mansoni [7] = test: Antischistosomal activity against Schistosoma mansoni incubated for 72 hrs by microscopic method; format: functional, organism-based
Schistosoma japonicum [8] = test: Antischistosomal activity against juvenile Schistosoma japonicum assessed as reduction in worm vitality at 25 uM incubated for 72 hrs relative to control; format: functional; design: scale not given: the % may be the effect or the level left
Schistosoma mansoni [9] = test: Antischistosomal activity against adult Schistosoma mansoni infected in NMRI mouse assessed as worm burden reduction at 400 mg/kg, po administered as single dose and measured at 21 days post treatment relative to control; format: functional; design: scale not given: the % may be the effect or the level left; details: time 21 day
[10] = Half life in C57BL/6 mouse at 20 mg/kg, po; format: ADME, organism-based; details: in vivo
[11] = Cmax in C57BL/6 mouse at 20 mg/kg, po measured after 3 hrs; format: ADME, organism-based; design: route oral, dose 20 mg/kg, time 3 hrs; details: in vivo
[12] = Oral bioavailability in C57BL/6 mouse at 20 mg/kg; format: ADME, organism-based; details: in vivo
[13] = Volume of distribution in C57BL/6 mouse at 20 mg/kg, po; format: ADME, organism-based; details: in vivo
Schistosoma mansoni [14] = test: Antischistosomal activity against Schistosoma mansoni Liberian infected in NMRI mouse assessed as worm burden reduction at 100 mg/kg, po measured after 14 days relative to control; format: functional; design: scale not given: the % may be the effect or the level left; details: time 14 day
Schistosoma haematobium [15] = test: Antischistosomal activity against Schistosoma haematobium Egyptian infected in NMRI mouse assessed as worm burden reduction at 200 mg/kg, po measured after 14 days; format: functional; design: scale not given: the % may be the effect or the level left; details: time 14 day
Schistosoma mansoni [16] = test: Antischistosomal activity against Schistosoma mansoni infected in Swiss albino mouse assessed as reduction in worm burden at 20 mg/kg, po administered for 5 days relative to control; format: functional; design: scale not given: the % may be the effect or the level left; details: time 5 day
Schistosoma mansoni [17] = test: Antischistosomal activity against male Schistosoma mansoni assessed as worm killing effect at 100 uM measured after 24 hrs by phase-contrast microscopy relative to control; format: functional
Schistosoma mansoni [18] = test: Potentiation of praziquantel-induced antischistosomal activity against Schistosoma mansoni infected in Swiss albino mouse assessed as intestinal egg burden at 20 mg/kg, po administered for 5 days (reference value: 67%); format: functional; details: time 5 day
Schistosoma mansoni [19] = test: Antischistosomal activity against female Schistosoma mansoni assessed as worm killing effect at 100 uM measured after 24 hrs by phase-contrast microscopy relative to control; format: functional
Schistosoma mansoni [20] = test: Antischistosomal activity against Schistosoma mansoni infected in Swiss albino mouse assessed as reduction in intestinal tissue egg burden at 20 mg/kg, po administered for 5 days relative to control; format: functional; design: scale not given: the % may be the effect or the level left; details: time 5 day
Schistosoma mansoni [21] = test: Potentiation of praziquantel-induced antischistosomal activity against Schistosoma mansoni infected in Swiss albino mouse assessed as worm burden at 20 mg/kg, po administered for 5 days (reference value: 60%); format: functional; details: time 5 day
Schistosoma mansoni [22] = test: Antischistosomal activity against Schistosoma mansoni assessed as worm killing effect at 100 uM measured after 24 hrs by phase-contrast microscopy relative to control; format: functional
Schistosoma mansoni [23] = test: schistosomicidal-activity against Schistosoma mansoni infected in NIH-Swiss mouse assessed as reduction in liver-staged worm burden at 10 mg/kg, ip administered daily for 5 consecutive days relative to control; format: functional; design: scale not given: the % may be the effect or the level left
Schistosoma mansoni [24] = test: Schistosomicidal-activity against Schistosoma mansoni infected in NIH-Swiss mouse assessed as reduction in skin staged worm burden at 10 mg/kg, ip administered daily for 5 consecutive days relative to control; format: functional; design: scale not given: the % may be the effect or the level left
Schistosoma mansoni [25] = test: schistosomicidal-activity against adult Schistosoma mansoni infected in NIH-Swiss mouse assessed as reduction in worm burden at 10 mg/kg, ip administered daily for 5 consecutive days relative to control; format: functional; design: scale not given: the % may be the effect or the level left; details: time 5 day
Schistosoma mansoni [26] = test: Antischistosomal activity against Schistosoma mansoni LE assessed as worm mortality at 20 uM incubated for 72 hrs by microscopic method relative to control; format: functional
Schistosoma mansoni [27] = test: Antischistosomal activity against Schistosoma mansoni LE assessed as worm vitality at 20 uM incubated for 24 hrs by microscopic method relative to control; format: functional
Schistosoma mansoni [28] = test: Antischistosomal activity against adult Schistosoma mansoni Liberian at 10 uM measured after 24 hrs relative to control; format: functional
Schistosoma haematobium [29] = test: Antischistosomal activity against Schistosoma haematobium at 10 uM measured after 72 hrs relative to control; format: functional
Schistosoma mansoni [30] = test: Antischistosomal activity against adult Schistosoma mansoni Liberian at 10 uM measured after 48 hrs relative to control; format: functional
Schistosoma mansoni [31] = test: microbe, parasite or virus in culture; details: 72 h
Description: Antischistosomal activity against Schistosoma mansoni incubated for 72 hrs by inverted microscopic method

Schistosoma mansoni [32] = test: microbe, parasite or virus in culture; details: Liberian, 72 h
Description: Antischistosomal activity against Schistosoma mansoni Liberian NTS incubated for 72 hrs by microscopic method

Schistosoma mansoni [33] = test: Antischistosomal activity against Schistosoma mansoni Liberian NTS at 10 uM measured after 24 hrs relative to control; format: functional
Schistosoma japonicum [34] = test: Antischistosomal activity against Schistosoma japonicum assessed as worm mortality at 5 ug/ml incubated for 72 hrs by microscopic method relative to control; format: functional; details: dose 5 µg/ml
Plasmodium falciparum [35] = test: Antiplasmodial activity against Plasmodium falciparum Dd2 incubated for 72 hrs by SYBR Green1 by fluorometric assay; format: functional, organism-based; details: Dd2, 72 h
Plasmodium falciparum [36] = test: Antiplasmodial activity against Plasmodium falciparum 3D7 incubated for 72 hrs by SYBR Green1 by fluorometric assay; format: functional, organism-based; details: 3D7, 72 h
Schistosoma japonicum [37] = test: Antischistosomal activity against adult Schistosoma japonicum assessed as reduction in worm vitality at >10 uM incubated for 48 hrs relative to control; format: functional; design: scale not given: the % may be the effect or the level left; details: dose microM >10
Schistosoma japonicum [38] = test: Antischistosomal activity against Schistosoma japonicum infected in ICR mouse assessed as total worm reduction at 250 mg/kg, po administered as single dose relative to control; format: functional; design: scale not given: the % may be the effect or the level left
Schistosoma mansoni [39] = test: Antischistosomal activity against adult Schistosoma mansoni LE assessed as worm mortality at 100 ug/ml measured after 96 hrs by inverted microscopic method relative to control; format: functional
Schistosoma mansoni [40] = test: Antischistosomal activity against adult Schistosoma mansoni LE assessed as worm mortality measured after 96 hrs by inverted microscopic method; format: functional, organism-based
Schistosoma mansoni [41] = test: Antischistosomal activity against Schistosoma mansoni LE infected in BALb/C mouse assessed as reduction in worm burden at 400 mg/kg, po administered as single dose and measured after 15 days relative to control; format: functional; design: scale not given: the % may be the effect or the level left; details: time 15 day
Schistosoma mansoni [42] = test: Antischistosomal activity against Schistosoma mansoni LE larva at […] measured within 48 hrs by inverted microscopic method relative to control; format: functional; details: dose 2.5 µg/ml

Structure (SMILES): NC(=O)c1nc(-c2ccc(C(F)(F)F)c(F)c2)cnc1Nc1cnc(OCCCN2CCCCC2)nc1
Activity (Schistosoma mansoni [1]): 37.6%

IC50 (Schistosoma mansoni [2]): 200 nM
IC50 (Schistosoma mansoni [3]): 600 nM
Structure (SMILES): O=C(Nc1cc(C(F)(F)F)ccc1Cl)c1ccccc1O

Structure (SMILES): O=C1c2ccccc2C(=O)N1C/C=N/N=c1\[nH]c(-c2ccccc2)cs1
mortality at 100 µg/mL (Schistosoma mansoni [4]): 100%
EC50 (Schistosoma mansoni [5]): 37500 nM
EC50 (Schistosoma mansoni [6]): 5150 nM

IC50 (Schistosoma mansoni [7]): 380 nM
t1/2 [10]: 18 min
Cmax [11]: 300 nM
bioavailability [12]: < 1%
Vd [13]: 0.18 L/kg
Structure (SMILES): N#Cc1c(C(F)(F)F)cc(NCc2ccccc2F)n2c1nc1cc(Cl)c(Cl)cc12
Activity (Schistosoma japonicum [8]): <1%
Activity (Schistosoma mansoni [9]): 69%

Structure (SMILES): OC(c1cc(-c2ccccc2)nc2c(Cl)cc(Cl)cc12)C1CCCCN1 (stereo not drawn)
Activity (Schistosoma mansoni [14]): 87%
Activity (Schistosoma haematobium [15]): 100%

Structure (SMILES): Brc1ccc(-c2c[nH]c(-c3ccccn3)n2)cc1
Activity (Schistosoma mansoni [16]): 29%
Activity (Schistosoma mansoni [17]): 100%
Activity (Schistosoma mansoni [18]): 83%
Activity (Schistosoma mansoni [19]): 0%
Activity (Schistosoma mansoni [20]): 35%
Activity (Schistosoma mansoni [21]): 96%
Activity (Schistosoma mansoni [22]): 56%

Structure (SMILES): N#Cc1c(-c2ccccc2)no[n+]1[O-]
Activity (Schistosoma mansoni [23]): 88%
Activity (Schistosoma mansoni [24]): 99%
Activity (Schistosoma mansoni [25]): 94%

Structure (SMILES): COc1cc(OC)c(/C=C2\NC(=O)N(Cc3c(F)cccc3Cl)C2=S)c(OC)c1
Activity (Schistosoma mansoni [26]): 100%
Activity (Schistosoma mansoni [27]): 100%

IC50 (Schistosoma mansoni [31]): 3000 nM
IC50 (Schistosoma mansoni [32]): 800 nM
Structure (SMILES): CN1CCN(CCCOc2ncc(Nc3ncc(-c4ccc(C(F)(F)F)c(F)c4)nc3C(N)=O)cn2)CC1
Activity (Schistosoma mansoni [28]): 70%
Activity (Schistosoma haematobium [29]): 100%
Activity (Schistosoma mansoni [30]): 100%
Activity (Schistosoma mansoni [33]): 100%

Structure (SMILES): CCCCNCC(O)Cn1c2ccc(Cl)cc2c2cc(Cl)ccc21 (stereo not drawn)
Activity (Schistosoma japonicum [34]): 100%
IC50 (Plasmodium falciparum [35]): 47 nM
IC50 (Plasmodium falciparum [36]): 274 nM

Structure (SMILES): O=C(C1CCCCC1)N1CC(=O)N2CCc3c(Br)cccc3C2C1 (stereo not drawn)
Activity (Schistosoma japonicum [37]): 100%
Activity (Schistosoma japonicum [38]): 54.3%
Activity (Schistosoma japonicum [8]): <10%

Structure (SMILES): O=C1c2ccccc2C(=O)N1Nc1nc(-c2ccc(Cl)cc2Cl)cs1
mortality at 100 µg/mL (Schistosoma mansoni [39]): 100%
EC50 (Schistosoma mansoni [40]): 50600 nM
Activity (Schistosoma mansoni [41]): 85%
mortality at […] (Schistosoma mansoni [42]): 100%
